Experimental findings from patent US10961245B2, “Substituted heterocycle fused gamma-carbolines for treatment of central nervous system disorders” (INTRA-CELLULAR THERAPIES, INC., priority 2016, dated 2021) are described below.

The target of one assay is T1, μ(MOP) (h) receptor (Homo sapiens, UniProt P35372).
T1 construct: expressed in transfected cells; host or cells: CHO cells
Description: Cellular functional assay, μ (MOP) (h) antagonist effect (cAMP, HTRF). It counts as cell-based. As to the method: Cellular and Nuclear Receptor Functional Assays are performed on the compounds of Formula II-B and according to the procedure of Wang, J. B. et al. (1994), FEBS Lett., 338:217-222. The compounds are tested at several concentrations to determine their IC50 or EC50.
Cellular agonist effects are calculated as percent of control response to a known reference agonist for each target and cellular antagonist effect is calculated as a percent inhibition of control reference agonist response for each target.
The following assay is performed to determine the effect of the Compound of Formula on the μ(MOP) (h) receptor: […]
The results are expressed as a percent of control agonist response: […]
and as a percent inhibition of control agonist response:
The EC50 values (concentration producing a half-maximal response) and IC50 values (concentration causing a half-maximal inhibition of the control agonist response) are determined by non-linear regression analysis of the concentration-response curves generated with mean replicate values using Hill equation curve fitting:
[formula] where Y=response, A=left asymptote of the curve, D=right asymptote of the curve, C=compound concentration, and C50=EC50 or IC50, and nH=slope factor. The analysis is performed using software developed in-house and validated by comparison with data generated by the commercial software SigmaPlot® 4.0 for Windows® (© 1997 by SPSS Inc.).
For the antagonists, the apparent dissociation constants (KB) are calculated using the modified Cheng Prusoff equation:
[formula] where A=concentration of reference agonist in the assay, and EC50A=EC50 value of the reference agonist.

A further assay addresses 5-HT2A (Homo sapiens, UniProt P28223). Description: Receptor binding 5-HT2A. To be noted: read-out: Ki (nM) or maximum inhibition. As to the method:
(§1) Receptor binding is determined for the Compounds of Formulas II-A and II-B using the tosylate salt of the compound of Formula A as a control. The following literature procedures are used, each of which reference is incorporated herein by reference in their entireties:
(§2) In general, the results are expressed as a percent of control specific binding:
(§3) [formula] and as a percent inhibition of control specific binding: […]
(§4) The IC50 values (concentration causing a half-maximal inhibition of control specific binding) and Hill coefficients (nH) are determined by non-linear regression analysis of the competition curves generated with mean replicate values using Hill equation curve fitting:
(§5) [formula] where Y=specific binding, A=left asymptote of the curve, D=right asymptote of the curve, C=compound concentration, C50=IC50, and nH=slope factor. This analysis was performed using in-house software and validated by comparison with data generated by the commercial software SigmaPlot® 4.0 for Windows® (© 1997 by SPSS Inc.). The inhibition constants (Ki) were calculated using the Cheng Prusoff equation:
(§6) [formula] where L=concentration of radioligand in the assay, and KD=affinity of the radioligand for the receptor. A Scatchard plot is used to determine the KD.

For another assay, the target named is D1 (Homo sapiens, UniProt P21728). The assay can be described thus: Receptor binding D1. To be noted: read-out: Ki (nM) or maximum inhibition. As to the method:
as §1, §2, §3, §4, §5, §6

The target in another assay is SERT (Homo sapiens, UniProt P31645). The assay can be described thus: Receptor binding SERT. The following applies: read-out: Ki (nM) or maximum inhibition. As to the method:
as §1
SERT: Park, Y. M. et al. (1999), Anal. Biochem., 269:94-104.
as §2, §3, §4, §5, §6

The target in a further assay is Mu opiate receptor (Homo sapiens, UniProt P35372). Description: Receptor binding Mu opiate receptor. To be noted: read-out: Ki (nM) or maximum inhibition. As to the method: as §1
Mu opiate receptor: Wang, J. B. et al. (1994), FEBS Lett., 338:217-222.
as §2, §3, §4, §5, §6

T1 sequence (P35372 whole entry): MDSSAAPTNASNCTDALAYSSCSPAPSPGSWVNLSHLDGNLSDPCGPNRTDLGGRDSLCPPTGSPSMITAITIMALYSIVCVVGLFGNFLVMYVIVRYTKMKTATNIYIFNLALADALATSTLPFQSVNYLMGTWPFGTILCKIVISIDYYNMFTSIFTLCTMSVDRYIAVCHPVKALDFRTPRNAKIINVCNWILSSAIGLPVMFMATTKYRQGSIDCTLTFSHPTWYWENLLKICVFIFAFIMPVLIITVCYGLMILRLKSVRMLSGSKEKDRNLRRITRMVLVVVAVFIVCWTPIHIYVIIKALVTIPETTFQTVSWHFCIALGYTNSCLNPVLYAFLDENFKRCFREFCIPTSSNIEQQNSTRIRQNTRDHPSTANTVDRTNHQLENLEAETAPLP
Sequence of SERT (P31645 whole entry, species assumed): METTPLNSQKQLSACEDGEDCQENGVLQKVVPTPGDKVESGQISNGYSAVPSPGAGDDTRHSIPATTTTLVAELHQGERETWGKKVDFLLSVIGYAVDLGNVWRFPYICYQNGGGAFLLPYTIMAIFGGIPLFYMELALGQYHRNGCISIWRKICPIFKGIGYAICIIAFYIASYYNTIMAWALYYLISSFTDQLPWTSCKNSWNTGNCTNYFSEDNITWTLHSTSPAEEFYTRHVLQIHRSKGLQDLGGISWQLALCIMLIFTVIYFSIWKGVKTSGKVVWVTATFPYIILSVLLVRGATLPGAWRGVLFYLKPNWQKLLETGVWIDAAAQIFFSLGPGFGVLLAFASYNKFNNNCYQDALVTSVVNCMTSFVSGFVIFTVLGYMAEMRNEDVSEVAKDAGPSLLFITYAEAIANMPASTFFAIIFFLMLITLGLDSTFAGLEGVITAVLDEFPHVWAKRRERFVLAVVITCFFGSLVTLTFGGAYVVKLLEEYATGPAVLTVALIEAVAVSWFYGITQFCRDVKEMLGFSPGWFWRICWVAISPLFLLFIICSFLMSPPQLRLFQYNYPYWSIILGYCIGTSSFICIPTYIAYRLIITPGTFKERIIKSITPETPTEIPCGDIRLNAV
Sequence of D1 (P21728 whole entry): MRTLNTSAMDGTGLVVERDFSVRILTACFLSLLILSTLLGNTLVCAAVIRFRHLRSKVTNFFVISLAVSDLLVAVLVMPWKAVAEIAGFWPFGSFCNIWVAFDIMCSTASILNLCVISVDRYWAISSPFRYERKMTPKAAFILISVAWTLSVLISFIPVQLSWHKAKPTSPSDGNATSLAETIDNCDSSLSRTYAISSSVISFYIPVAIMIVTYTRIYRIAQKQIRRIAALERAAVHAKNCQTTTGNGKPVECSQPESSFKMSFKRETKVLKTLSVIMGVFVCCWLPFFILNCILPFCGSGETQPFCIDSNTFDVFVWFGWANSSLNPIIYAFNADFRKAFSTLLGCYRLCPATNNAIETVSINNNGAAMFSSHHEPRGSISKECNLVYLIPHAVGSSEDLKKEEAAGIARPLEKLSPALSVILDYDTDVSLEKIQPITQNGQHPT
Sequence of Mu opiate receptor (P35372 whole entry): as the sequence (P35372 whole entry) above
Sequence of 5-HT2A (P28223 whole entry): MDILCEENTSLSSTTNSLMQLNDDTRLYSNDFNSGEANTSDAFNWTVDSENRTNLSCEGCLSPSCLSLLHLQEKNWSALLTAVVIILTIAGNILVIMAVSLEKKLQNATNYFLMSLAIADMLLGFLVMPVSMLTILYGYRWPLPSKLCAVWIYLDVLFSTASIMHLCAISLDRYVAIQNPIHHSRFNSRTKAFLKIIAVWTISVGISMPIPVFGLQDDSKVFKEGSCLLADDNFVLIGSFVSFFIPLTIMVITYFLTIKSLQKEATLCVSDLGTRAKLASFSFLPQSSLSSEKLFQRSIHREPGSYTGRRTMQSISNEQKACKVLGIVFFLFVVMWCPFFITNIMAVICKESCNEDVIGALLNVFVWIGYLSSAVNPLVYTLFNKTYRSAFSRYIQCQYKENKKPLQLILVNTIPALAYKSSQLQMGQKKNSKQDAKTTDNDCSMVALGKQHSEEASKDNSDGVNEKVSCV

As to `CN1C(=O)CN2c3c(cccc31)[C@@H]1CN(CCCC(=O)c3ccncc3)CC[C@@H]12` [Formula II-B], the IC50 (usually the concentration at which inhibition is half-maximal) on μ(MOP) (h) receptor (human recombinant CHO cells, DAMGO (20 nM) stimulus, cAMP) came out at 1.3 µM. Also, the Kb (commonly the equilibrium dissociation constant of an antagonist, usually derived from a functional assay) at μ(MOP) (h) receptor (modified Cheng Prusoff equation, DAMGO (20 nM), read-out: μ(MOP) (h) (antagonist effect) KB (apparent dissociation constant)) worked out at 0.14 µM.

With `O=C1CN2c3c(cccc3[C@@H]3CN(CCCC(=O)c4ccncc4)CC[C@@H]32)N1` [Formula II-C], the Ki – broadly, the dissociation constant of the complex between target and ligand, obtained from inhibition or displacement – was found to be 37 nM at 5-HT2A, 470 nM on D1 and 400 nM on Mu opiate receptor. The inhibition (in general, the relative decrease from the control value, in per cent) at 1 µM at SERT was found to be 40%. In addition, the IC50 against μ(MOP) (h) receptor (unit inferred, highest concentration tested) was above 10 µM.
